This assay deals with human PCSK9 (Homo sapiens, UniProt Q8NBP7). In words: PCSK9 ligand binding TR-FRET assay (interference with binding of human PCSK9 to human LDLR). The settings on record: for Max % inhibition: PCSK9 FRET assay, efficacy (Amax), 100% = 1 uM unlabeled human PCSK9, 0% = DMSO; for IC50: TR-FRET, human PCSK9 Alexa Fluor 647 / human LDLR extracellular domain-Europium Kryptate, read-out: PCSK9 FRET Assay IC50. As for the experimental part:
The PCSK9 binding of the compounds of the disclosure were measured using a time resolved fluorescence resonance energy transfer (TR-FRET) assay. This time resolved fluorescence resonance energy transfer (TR-FRET) assay measures the ability of a compound of the present disclosure to interfere with the binding of human PCSK9 to human LDLR, providing measures of both potency (IC50) and efficacy (Amax).
These solutions were pipetted into columns 1 and 11 of the compound plate. Threefold serial dilutions were generated in columns 2-10 and 12-20 of the compound plate by transferring 10 uL into 20 uL of DMSO. Columns 21 and 22 of the compound plate were negative controls containing DMSO alone.
An intermediate plate was generated in a Greiner V bottom plate by transferring 8 uL from each well of the master plate into a corresponding well containing 92 uL of assay buffer and mixing thoroughly.
A Proxi plate-low volume assay plate was used for the assay. […] For the positive control wells in columns 23 and 24 of the plate, 5 uL of unlabeled human PCSK9 was added at 4 uM in assay buffer containing 8% DMSO. Following a 30 minute incubation, 5 uL of 4 nM Human LDLR extracellular domain-Europium Kryptate was added and the mixture was incubated for an additional 2 hours.
The FRET ratio (FRET/Europium) was used for calculations.
Data is expressed as percent inhibition: (value−0%)/(100%−0%).

These results are taken from US20230089867A1, “CYCLIC PENTAMER COMPOUNDS AS PROPROTEIN CONVERTASE SUBTILISIN/KEXIN TYPE 9 (PCSK9) INHIBITORS FOR THE TREATMENT OF METABOLIC DISORDER” (Novartis AG, priority 2018, published 2023).

Sequence of human PCSK9 (Q8NBP7 153-692): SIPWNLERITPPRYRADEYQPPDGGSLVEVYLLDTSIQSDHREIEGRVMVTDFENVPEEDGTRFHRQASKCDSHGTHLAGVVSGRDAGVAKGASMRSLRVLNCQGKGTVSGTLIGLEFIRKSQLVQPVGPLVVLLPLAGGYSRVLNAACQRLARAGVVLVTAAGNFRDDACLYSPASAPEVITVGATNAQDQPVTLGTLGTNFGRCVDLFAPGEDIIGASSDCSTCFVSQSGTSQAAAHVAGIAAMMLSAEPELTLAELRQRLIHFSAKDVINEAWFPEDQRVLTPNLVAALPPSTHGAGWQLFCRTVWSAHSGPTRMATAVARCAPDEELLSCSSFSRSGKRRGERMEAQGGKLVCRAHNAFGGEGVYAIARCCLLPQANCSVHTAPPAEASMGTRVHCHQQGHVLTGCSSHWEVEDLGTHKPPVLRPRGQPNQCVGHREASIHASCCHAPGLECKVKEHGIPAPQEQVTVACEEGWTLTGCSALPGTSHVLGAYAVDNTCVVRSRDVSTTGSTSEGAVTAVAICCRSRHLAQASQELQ
Sequence of human PCSK9 (Q8NBP7 31-152 partner limits assumed): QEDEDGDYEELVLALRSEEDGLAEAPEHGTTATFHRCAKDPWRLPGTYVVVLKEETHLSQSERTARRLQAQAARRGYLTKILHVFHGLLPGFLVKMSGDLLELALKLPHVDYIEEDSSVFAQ

One may read the IC50 as the midpoint of a concentration-inhibition curve. As for `COC[C@@H]1NC(=O)[C@H](C)N(Cc2c(OCC(F)(F)F)cc(Cl)cc2Oc2ccc(-c3cnc(CN4CCCC4)n3C)cc2)C(=O)C[C@@H](C)C(=O)N(C)[C@@H](C)CNC(=O)C[C@H](Cc2ccc(Cl)cc2)N(C)C1=O` [Compound 7, (2S,5S,8S,13S,16R)-1-(4-chloro-2-(4-(1-methyl-2-(pyrrolidin-1-ylmethyl)-1H-imidazol-5-yl)phenoxy)-6-(2,2,2-trifluoroethoxy)benzyl)-8-(4-chlorobenzyl)-5-(methoxymethyl)-2,7,13,14,16-pentamethyl-1,4,7,11,14-pentaazacyclooctadecane-3,6,10,15,18-pentaone], the Max % inhibition is on record as 93.00% and the IC50 stood at 9.9 nM.

With `COC[C@@H]1NC(=O)[C@@H](COC)N(Cc2ccc(Cl)cc2Oc2ccc(-c3cnc(CN(C)C)n3C)cc2)C(=O)C[C@@H](Cc2ccccc2)C(=O)N(C)[C@H]2CCCC[C@@H]2NC(=O)C[C@H](Cc2ccc(Cl)cc2)N(C)C1=O` [Compound 8, (4S,7S,10R,14R,16aS,20aS)-14-benzyl-11-(4-chloro-2-(4-(2-((dimethylamino)methyl)-1-methyl-1H-imidazol-5-yl)phenoxy)benzyl)-4-(4-chlorobenzyl)-7,10-bis(methoxymethyl)-5,16-dimethylhexadecahydrobenzo[l][1,4,7,11,14]pentaazacyclooctadecine-2,6,9,12,15(3H)-pentaone], the Max % inhibition came to 101.12% and the IC50 turned out to be 8.9 nM.

As to `COC[C@@H]1NC(=O)[C@H](C)N(Cc2ccccc2Oc2ccc(-c3cnc(CN(C)C)n3C)cc2)C(=O)C[C@@H](Cc2ccccc2)C(=O)N(C)[C@@H](C)CNC(=O)C[C@H](Cc2ccc(Cl)cc2)N(C)C1=O` [Compound 9, (2S,5S,8S,13S,16R)-16-benzyl-8-(4-chlorobenzyl)-1-(2-(4-(2-((dimethylamino)methyl)-1-methyl-1H-imidazol-5-yl)phenoxy)benzyl)-5-(methoxymethyl)-2,7,13,14-tetramethyl-1,4,7,11,14-pentaazacyclooctadecane-3,6,10,15,18-pentaone], the Max % inhibition came out at 98.16% and the 50% inhibitory concentration (IC50) worked out at 3.1 nM.

In the case of `COC[C@@H]1NC(=O)[C@H](CCC(=O)OC(C)(C)C)N(Cc2ccc(Cl)cc2Oc2ccc(-c3cnc(CN(C)C)n3C)cc2)C(=O)C[C@@H](Cc2ccccc2)C(=O)N(C)[C@@H](C)CNC(=O)C[C@H](Cc2ccc(Cl)cc2)N(C)C1=O` [Compound 10, tert-butyl 3-((2S,5S,8S,13S,16R)-16-benzyl-1-(4-chloro-2-(4-(2-((dimethylamino)methyl)-1-methyl-1H-imidazol-5-yl)phenoxy)benzyl)-8-(4-chlorobenzyl)-5-(methoxymethyl)-7,13,14-trimethyl-3,6,10,15,18-pentaoxo-1,4,7,11,14-pentaazacyclooctadecan-2-yl)propanoate], the Max % inhibition amounted to 101.88% and the half-inhibitory concentration (IC50) turned out to be 4.3 nM.

With `COC[C@@H]1NC(=O)[C@H](CO)N(Cc2ccc(Cl)cc2Oc2ccc(-c3cnc(CN(C)C)n3C)cc2)C(=O)C[C@@H](Cc2ccccc2)C(=O)N(C)[C@@H](C)CNC(=O)C[C@H](Cc2ccc(Cl)cc2)N(C)C1=O` [Compound 11, (2S,5S,8S,13S,16R)-16-benzyl-1-(4-chloro-2-(4-(2-((dimethylamino)methyl)-1-methyl-1H-imidazol-5-yl)phenoxy)benzyl)-8-(4-chlorobenzyl)-2-(hydroxymethyl)-5-(methoxymethyl)-7,13,14-trimethyl-1,4,7,11,14-pentaazacyclooctadecane-3,6,10,15,18-pentaone], the Max % inhibition was determined as 105.07% and the IC50 was found to be 2.6 nM.

Consider `COC[C@@H]1NC(=O)[C@@H](C)N(Cc2ccc(Cl)cc2Oc2ccc(-c3cnc(CN(C)C)n3C)cc2)C(=O)C[C@@H](Cc2ccccc2)C(=O)N(C)[C@@H](C)CNC(=O)C[C@H](Cc2ccc(Cl)cc2)N(C)C1=O` [Compound 12, (2R,5S,8S,13S,16R)-16-benzyl-1-(4-chloro-2-(4-(2-((dimethylamino)methyl)-1-methyl-1H-imidazol-5-yl)phenoxy)benzyl)-8-(4-chlorobenzyl)-5-(methoxymethyl)-2,7,13,14-tetramethyl-1,4,7,11,14-pentaazacyclooctadecane-3,6,10,15,18-pentaone], for which the Max % inhibition was found to be 98.09% and the IC50 was 74.1 nM.

In the case of `COC[C@H]1C(=O)N(C)[C@@H](Cc2ccc(Cl)cc2)CC(=O)NC[C@H](C)N(C)C(=O)[C@H](Cc2ccccc2)CC(=O)N(Cc2ccc(Cl)cc2Oc2ccc(-c3cnc(CN(C)C)n3C)cc2)[C@H]2CC(=O)N1C2=O` [Compound 13, (2S,5S,10S,13R,17S)-13-benzyl-16-(4-chloro-2-(4-(2-((dimethylamino)methyl)-1-methyl-1H-imidazol-5-yl)phenoxy)benzyl)-5-(4-chlorobenzyl)-2-(methoxymethyl)-4,10,11-trimethyl-1,4,8,11,16-pentaazabicyclo[15.2.1]icosane-3,7,12,15,19,20-hexaone], the Max % inhibition came to 101.32% and the IC50 worked out at 106 nM.

As for `COC[C@@H]1NC(=O)[C@H](C)N(Cc2ccc(Cl)cc2Oc2ccc(-c3cnc(CN4CCCC4)n3C)cc2)C(=O)C[C@@H](Cc2ccccc2)C(=O)N(C)[C@@H]2CCOC[C@H]2NC(=O)C[C@H](Cc2ccc(Cl)cc2)N(C)C1=O` [Compound 14, (4S,7S,10S,14R,16aR,20aS)-14-benzyl-11-(4-chloro-2-(4-(1-methyl-2-(pyrrolidin-1-ylmethyl)-1H-imidazol-5-yl)phenoxy)benzyl)-4-(4-chlorobenzyl)-7-(methoxymethyl)-5,10,16-trimethyltetradecahydro-1H-pyrano[3,4-l][1,4,7,11,14]pentaazacyclooctadecine-2,6,9,12,15(3H)-pentaone], the Max % inhibition is 93.84% and the IC50 is 307 nM.

For `COC[C@@H]1NC(=O)[C@H](C)N(Cc2ccc(Cl)cc2Oc2ccc(-c3cnc(CN4CCC4)n3C)cc2)C(=O)C[C@@H](Cc2ccccc2)C(=O)N(C)[C@H]2CCCC[C@@H]2NC(=O)C[C@H](Cc2ccc(Cl)cc2)N(C)C1=O` [Compound 16, (4S,7S,10S,14R,16aS,20aS)-11-(2-(4-(2-(azetidin-1-ylmethyl)-1-methyl-1H-imidazol-5-yl)phenoxy)-4-chlorobenzyl)-14-benzyl-4-(4-chlorobenzyl)-7-(methoxymethyl)-5,10,16-trimethylhexadecahydrobenzo[l][1,4,7,11,14]pentaazacyclooctadecine-2,6,9,12,15(3H)-pentaone], the Max % inhibition is given as 92.71% and the concentration for half-maximal inhibition (IC50) is 1.7 nM.

In the case of `COC[C@@H]1NC(=O)[C@H](CN2CCC2)N(Cc2ccc(Cl)cc2Oc2ccc(-c3cnc(CN(C)C)n3C)cc2)C(=O)C[C@@H](Cc2ccccc2)C(=O)N(C)[C@@H](C)CNC(=O)C[C@H](Cc2ccc(Cl)cc2)N(C)C1=O` [Compound 17, (2S,5S,8S,13S,16R)-2-(azetidin-1-ylmethyl)-16-benzyl-1-(4-chloro-2-(4-(2-((dimethylamino)methyl)-1-methyl-1H-imidazol-5-yl)phenoxy)benzyl)-8-(4-chlorobenzyl)-5-(methoxymethyl)-7,13,14-trimethyl-1,4,7,11,14-pentaazacyclooctadecane-3,6,10,15,18-pentaone], the Max % inhibition was 81.08% and the IC50 is 61.2 nM.

As to `COC[C@@H]1NC(=O)[C@H](C)N(Cc2ccc(Cl)cc2Oc2ccc(-c3cnc(CN(C)C)n3C)cc2)C(=O)C[C@@H](Cc2ccon2)C(=O)N(C)[C@H]2CCCC[C@@H]2NC(=O)C[C@H](Cc2ccc(Cl)cc2)N(C)C1=O` [Compound 18, (4S,7S,10S,14R,16aS,20aS)-11-(4-chloro-2-(4-(2-((dimethylamino)methyl)-1-methyl-1H-imidazol-5-yl)phenoxy)benzyl)-4-(4-chlorobenzyl)-14-(isoxazol-3-ylmethyl)-7-(methoxymethyl)-5,10,16-trimethylhexadecahydrobenzo[l][1,4,7,11,14]pentaazacyclooctadecine-2,6,9,12,15(3H)-pentaone], the Max % inhibition turned out to be 86.12% and the IC50 was 1.1 nM.

As to `COC[C@@H]1NC(=O)[C@H](C)N(Cc2ccc(Cl)cc2Oc2ccc(-n3cnc(CN4CCCC4)c3C)cc2)C(=O)C[C@@H](Cc2ccccc2)C(=O)N(C)[C@H]2CCCC[C@@H]2NC(=O)C[C@H](Cc2ccc(Cl)cc2)N(C)C1=O` [Compound 19, (4S,7S,10S,14R,16aS,20aS)-14-benzyl-11-(4-chloro-2-(4-(5-methyl-4-(pyrrolidin-1-ylmethyl)-1H-imidazol-1-yl)phenoxy)benzyl)-4-(4-chlorobenzyl)-7-(methoxymethyl)-5,10,16-trimethylhexadecahydrobenzo[l][1,4,7,11,14]pentaazacyclooctadecine-2,6,9,12,15(3H)-pentaone], the Max % inhibition is 106.65% and the IC50 is 1.5 nM.
